For orientation: IC50 means the midpoint of a concentration-inhibition curve.

Activity calls are given as the source filed them. No rule for the calls is given here.

Drawing on PubChem BioAssay AID651962 (The Scripps Research Institute Molecular Screening Center, 2012), this text covers IC50 for eleven compounds.

Sequence of Receptor-interacting serine/threonine-protein kinase 2 (Homo sapiens) (O43353 whole entry, looked up): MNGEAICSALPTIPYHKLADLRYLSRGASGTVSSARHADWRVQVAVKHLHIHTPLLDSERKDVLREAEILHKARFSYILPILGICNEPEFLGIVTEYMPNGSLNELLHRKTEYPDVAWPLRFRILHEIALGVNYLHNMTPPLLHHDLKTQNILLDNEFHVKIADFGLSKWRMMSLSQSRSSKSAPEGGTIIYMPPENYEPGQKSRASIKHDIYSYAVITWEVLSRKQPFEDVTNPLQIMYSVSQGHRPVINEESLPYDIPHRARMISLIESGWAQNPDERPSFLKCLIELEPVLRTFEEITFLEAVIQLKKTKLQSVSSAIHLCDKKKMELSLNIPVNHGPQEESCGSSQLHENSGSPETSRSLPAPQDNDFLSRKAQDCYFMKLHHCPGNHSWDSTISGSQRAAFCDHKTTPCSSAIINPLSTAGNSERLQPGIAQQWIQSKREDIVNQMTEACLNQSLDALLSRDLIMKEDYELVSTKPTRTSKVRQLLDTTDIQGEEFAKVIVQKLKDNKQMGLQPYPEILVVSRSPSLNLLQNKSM

This assay addresses Receptor-interacting serine/threonine-protein kinase 2 (Homo sapiens) (UniProt O43353). Kind of assay: NOD2-RIPK2 binding disruptor potency, late-stage follow-up, cell-based, fluorescence (AID 651962). The conditions noted are these: cell-based NOD2-RIPK2 interaction, fluorescence read-out.
As to `O=S(=O)(c1ccccc1)N1CCCCCC1`, the IC50 is > 49.8 µM (inactive).
Turning to `Cc1ccc(S(=O)(=O)N2CCCCCC2)cc1[N+](=O)[O-]`, the IC50 was > 49.8 µM (inactive).
On to `COc1ccc(C(C[N+](=O)[O-])n2nc(C)cc2C)cc1` (stereo unspecified), for which the IC50 was 3.81 µM.
For `Cc1nc([N+](=O)[O-])c(Br)n1Cc1ccc(Cl)c(Cl)c1`, the IC50 result was “inactive”.
`O=[N+]([O-])c1cccc(S(=O)(=O)N2CCCCCC2)c1`: the IC50 was > 49.8 µM (inactive).
The same measure for `O=S(=O)(c1ccc(F)cc1)N1CCCCCC1`: > 49.8 µM (inactive); for `Cc1ncc([N+](=O)[O-])n1Cc1ccc(Cl)c(Cl)c1`: > 49.8 µM (inactive); for `Cc1cc(S(=O)(=O)N2CCCCCC2)ccc1F`: > 49.8 µM (inactive).
Regarding `Cc1ccc(C(C[N+](=O)[O-])n2nc(C)cc2C)cc1` (stereo unspecified), the IC50 was 2.97 µM.
In the case of `Cc1nc([N+](=O)[O-])c(Br)n1Cc1ccccc1`, the IC50 entry was “inactive”.
For `O=[N+]([O-])c1cc(S(=O)(=O)N2CCCCCC2)ccc1F` the value was 8.04 µM.
